The test system of one series is HSA and AGP (24:1). As to the kind of experiment: TRANSILXL PPB plasma protein binding assay. The note with it: human, TRANSILXL PPB assay, HSA and AGP in a ratio 24:1.
For a further series, the system named is 1321N1 astrocytoma cells. In words: Antiproliferative activity (MTS), 1321N1. In kind it is cell-based, human. To be noted: Homo sapiens, 1321-N1; MTS assay. The method, then: (§1) These cell lines were characterized by different mutation profiles, the main one being the variable status of the p53 protein. In detail, U87MG cells have a wild-type p53 protein, while astrocytoma and the rest of GBM cells harbor mutated p53 protein. Additional assays were performed on MCF7 breast cancer and AsPC-1 pancreatic cancer cells. The wide range of tested lines was aimed at screening the anticancer potential of the tested compounds. The first represents one of the most common and the second one of the most aggressive cancers in the world. Comparing the activity of compounds on GBM cells to other types of cancer may reveal their selectivity and usefulness in targeted therapies. The cytotoxicity of the compounds on normal human astrocytes (NHA) and Feline catus astrocyte (PG-4) was determined. Tests on normal lines serve to verify the potential toxicity of the tested compounds on healthy cells. Due to the targeting of CNS tumors, astrocytes were selected as normal lines.
(§2) The detailed procedure is presented in previous publications.[53] […] Cells were cultured in appropriate media, supplemented with FBS, antibiotics, and other supplements, and incubated at 37 °C with 5% CO2. […] Cell viability was assessed using the MTS assay, and the inhibitory concentration (IC50) was calculated using GraphPad Prism 8.0. Each compound was tested in triplicate across multiple experiments.
Supplementary materials - Biological research […]
(In general: Formazan colour is commonly taken as a measure of viable cells.)

A further series has as its target T1, D2 (Homo sapiens, UniProt P14416).
T1 construct: expressed in transfected cells; host or cells: HEK293
As to the kind of experiment: Radioligand binding assay, D2 ([3H]-raclopride). To be noted: Table 3, unit inferred; 2.5 nM [3H]-raclopride. The protocol: (§3) Their functional activity was also evaluated by assessing their ability to inhibit agonist-induced cAMP production in HEK293 cells (Table 3). Extended radioisotope tests were aimed at detecting potential affinity for other aminergic receptors, whose role in cancer treatment may be important. Functions were tested for all receptors. The essence of functional tests results from the fact that serotonin stimulates tumor progression. Therefore, the ligand should have the potential to reduce its concentration, i.e., act as an antagonist.[39]
(§4) The detailed procedure is presented in previous publications.[53] Assays were performed by incubating for 1 h at 37 °C (room temperature for 5-HT1A) in 200 μL volumes on 96-well plates. The reaction was terminated by rapid filtration using Unifilter plates, and radioactivity on the filters was measured with a PerkinElmer Microbeta plate reader. Radioligands used were:
D2: 2.5 nM [^3H]-raclopride
(§5) Eight concentrations (10^–4 to 10^–11 M) were tested in triplicate for each compound. Inhibition constants (Ki) were calculated using the Cheng–Prusoff equation.[54] The results are expressed as the means of at least two independent experiments.

Series [1] in a line: Lipophilicity, chromatographic hydrophobicity index on C18 (Valko protocol). The format is physicochemical. The protocol: (§6) Lipophilicity and affinity for phospholipids for each investigated molecule were assessed. Additionally, selected compounds with the highest biological activities have been characterized by their affinity plasma proteins. All experiments were performed using protocols developed by Valko.[35] These methods facilitated the calculation of chromatographic hydrophobicity indices (CHI) and plasma protein binding percentages (%PPB) in a biochromatographic experiment, with results compared to the reference. A detailed description of the experiments is provided in the Supporting Information (SI), along with the raw data. […] Although high lipophilicity may limit the medical use of the analyzed compounds since they may tend to accumulate excessively in the human body, it is remarkable that several clinically used drugs also have high lipophilicity. […] (Table 5).
(§7) The detailed procedure is presented in previous publications.[53] High-performance liquid chromatography (HPLC) analyses were conducted using the Prominence-1 LC-2030C 3D system (Shimadzu) with a DAD detector, employing three different chromatographic columns with specific stationary phases and mobile phases. The analysis was performed at 30 °C with a flow rate of 1.5 mL/min for IAM and C18 columns, and 0.9 mL/min for the Chiralpak column. Calibration standards for the columns were sourced from various suppliers and dissolved in dimethyl sulfoxide. Detection occurred in the UV range (190–300 nm) with a 5 μL injection volume. Each compound was analyzed in triplicate. Retention times for the tested compounds and calibration standards are provided in the Supporting Information (Tables S1 and S2).

In series [2] the target is T2, 5-HT1A (Homo sapiens, UniProt P08908).
T2 construct: expressed in transfected cells; host or cells: HEK293
T2 sequence (P08908 1-422): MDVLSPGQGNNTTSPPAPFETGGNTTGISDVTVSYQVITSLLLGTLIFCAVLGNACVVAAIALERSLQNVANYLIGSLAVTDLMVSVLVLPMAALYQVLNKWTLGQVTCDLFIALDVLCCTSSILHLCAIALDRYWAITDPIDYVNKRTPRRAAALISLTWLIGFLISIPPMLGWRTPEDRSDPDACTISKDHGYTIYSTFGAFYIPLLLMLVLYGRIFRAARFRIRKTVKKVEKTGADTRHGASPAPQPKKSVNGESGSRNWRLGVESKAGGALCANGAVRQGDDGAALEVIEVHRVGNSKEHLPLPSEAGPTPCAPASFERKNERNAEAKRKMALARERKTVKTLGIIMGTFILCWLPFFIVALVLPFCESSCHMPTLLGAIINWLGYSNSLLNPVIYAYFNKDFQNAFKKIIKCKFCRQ
In words: Functional cAMP assay (LANCE Ultra), 5-HT1A. The format is cell-based. To be noted: for function at 5-HT1A: in words; for EC50: agonist mode. The protocol:
as §3
The detailed procedure is presented in previous publications.[53] The functional activity of the compounds was assessed using the LANCE Ultra cAMP detection kit (PerkinElmer). […] For other receptors (5-HT7R, 5-HT1AR, and 5-HT6R), 5-CT was used at 10, 100, and 1000 nM, respectively. Each compound was tested in triplicate across eight concentrations. The inhibitory constant (Kb) for each antagonist was calculated using the Cheng–Prusoff equation.
In general terms: cAMP levels reflect the balance of adenylyl cyclase and phosphodiesterase activity.

In series [3] the target is T3, human serum albumin (HSA) (Homo sapiens, UniProt P02768).
T3 construct: purchased
T3 sequence (P02768 25-609): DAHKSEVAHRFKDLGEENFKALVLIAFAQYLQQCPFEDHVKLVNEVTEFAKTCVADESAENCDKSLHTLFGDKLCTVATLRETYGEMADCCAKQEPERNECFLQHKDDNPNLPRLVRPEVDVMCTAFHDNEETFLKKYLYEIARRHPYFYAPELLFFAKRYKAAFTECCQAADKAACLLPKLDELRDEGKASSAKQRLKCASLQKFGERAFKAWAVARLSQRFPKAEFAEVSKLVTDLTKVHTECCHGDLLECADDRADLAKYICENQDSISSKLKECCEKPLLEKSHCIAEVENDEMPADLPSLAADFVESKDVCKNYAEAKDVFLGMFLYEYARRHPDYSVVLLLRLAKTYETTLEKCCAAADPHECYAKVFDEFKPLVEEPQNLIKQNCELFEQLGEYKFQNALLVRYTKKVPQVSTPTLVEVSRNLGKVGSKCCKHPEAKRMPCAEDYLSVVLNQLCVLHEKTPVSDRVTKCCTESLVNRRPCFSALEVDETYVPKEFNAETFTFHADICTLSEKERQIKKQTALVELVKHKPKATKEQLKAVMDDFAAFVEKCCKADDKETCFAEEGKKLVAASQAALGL
In words: HSA binding by biochromatography (HSA column). In kind it is in vitro ADME. The note with it: HSA column. The protocol: as §6, §7

For series [4], the target named is T2, 5-HT1A. As to the kind of experiment: Radioligand binding assay, 5-HT1A ([3H]-8-OHDPAT). To be noted: Table 3, unit inferred; 2.5 nM [3H]-8-OHDPAT. The method, then:
as §3, §4, §5

For another series, the system named is HEK293. As to the kind of experiment: Viability of HEK293 cells. The format is cell-based. To be noted: Homo sapiens. An excerpt: PP 10 was characterized by a moderate 5-HT1A/5-HT5A/5-HT6/5-HT7 antagonist profile. […] Due to its potential function as an […], the viability of HEK293 cells treated with the test compounds was examined. No cytotoxic effects of the compounds were detected in the tested concentration range.

Another series deals with MCF7 breast cancer cells. As to the kind of experiment: Antiproliferative activity (MTS), MCF7. The format is cell-based, human. The note with it: Homo sapiens, MCF7; MTS assay, 72 h. The method, then:
as §1, §2

Series [5] has as its system LN-229 glioblastoma cells. As to the kind of experiment: Antiproliferative activity (MTS), LN-229. The format is cell-based, human. The note with it: Homo sapiens, LN-229; MTS assay, 72 h. The protocol: as §1, §2

Several values for one entry are separate records, joined by “and”; a condition that tells them apart may be missing. Equal values may be shown once. Bounds are passed on as bounds.

T1 sequence (P14416 whole entry): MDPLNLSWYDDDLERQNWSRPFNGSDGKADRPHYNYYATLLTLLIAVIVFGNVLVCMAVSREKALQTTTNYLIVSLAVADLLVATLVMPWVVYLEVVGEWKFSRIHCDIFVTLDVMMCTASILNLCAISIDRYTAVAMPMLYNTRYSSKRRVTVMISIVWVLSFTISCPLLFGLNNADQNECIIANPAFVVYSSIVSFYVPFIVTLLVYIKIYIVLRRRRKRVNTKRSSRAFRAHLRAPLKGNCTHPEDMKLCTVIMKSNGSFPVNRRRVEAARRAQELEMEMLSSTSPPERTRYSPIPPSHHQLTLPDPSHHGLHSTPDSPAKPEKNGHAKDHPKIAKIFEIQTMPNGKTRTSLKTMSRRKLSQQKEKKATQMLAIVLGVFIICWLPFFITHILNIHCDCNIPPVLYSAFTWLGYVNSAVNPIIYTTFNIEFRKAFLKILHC

Usually fraction unbound stands for free concentration divided by total concentration. A word on the IC50: it is the concentration needed to halve the response being measured. The low end stands for greater potency in that assay, the high end for weaker potency in that assay. In general, Ki refers to the equilibrium dissociation constant of an inhibitor or competing ligand from its target. Read a high Ki as lower affinity. As a reminder, the Kb is the equilibrium dissociation constant of an antagonist, usually derived from a functional assay. A low value points to a more potent antagonist. In the case of `CC1NC(NCCCCCCNS(=O)(=O)c2cccc3ccccc23)=Nc2ccccc21` (stereo not drawn) [PP 10, N-{6-[(4-Methyl-3,4-dihydroquinazolin-2-yl)amino]hexyl}naphthalene-1-sulfonamide], the fraction unbound in the series with HSA and AGP (24:1) was 0.003. Also, the IC50 in the series with 1321N1 astrocytoma cells is 13.4 ± 0.8 µM; in the series on HEK293, more than 50 µM; with MCF7 breast cancer cells it was more than 25 µM; in series [5] it was more than 25 µM. Besides, the results for the Ki at D2 and on 5-HT1A [4] were 2.93 µM and 0.165 µM, respectively. Besides, in series [1], the “CHI C18 pH 2.6” value came to 89.8. In [1], the “CHI C18 pH 7.4” value stood at 99.7. For the same molecule, in [1], the “CHI C18 pH 10.5” value is recorded as 120.4. Further, the Kb at 5-HT1A [2] (Table 3, unit inferred, cAMP, antagonist mode, 5-CT) is 0.074 µM. The “function at 5-HT1A” value on 5-HT1A [2] is reported as “antagonist”. Also, the “%HSA” value in [3] stood at 97.7%. Also, the logKHSA in series [3] was 1.47 and 1.5.
As a reminder, the EC50 is the midpoint of the concentration-response curve. For `CC1NC(NCCCCCCNS(=O)(=O)c2c(Cl)ccc3ccccc23)=Nc2ccccc21` (stereo not drawn) [PP 13, 2-Chloro-N-{6-[(4-methyl-3,4-dihydroquinazolin-2-yl)amino]hexyl}naphthalene-1-sulfonamide], in the series with HSA and AGP (24:1), the fraction unbound amounted to 0.001 ± 3e-07. For the same molecule, the IC50 with 1321N1 astrocytoma cells was 9.6 ± 1.8 µM; in the series with HEK293, more than 50 µM; with MCF7 breast cancer cells it was 19.3 ± 0.3 µM; in series [5], more than 25 µM. The Ki on D2 was determined as 1.9 µM; at 5-HT1A [4], 0.019 µM. For the same molecule, the “CHI C18 pH 2.6” value in [1] was 115.8. For the same molecule, the “CHI C18 pH 7.4” value in [1] was 105.7. Besides, the “CHI C18 pH 10.5” value in [1] came out at 128.8. On 5-HT1A [2] (Table 3, unit inferred, cAMP), a half-maximal effect (EC50) was put at 1.54 µM. For the same molecule, on 5-HT1A [2], the “function at 5-HT1A” value is recorded as “agonist”. The “%HSA” value in series [3] was more than 99.8%.
In the case of `O=S1(=O)c2cccc3cccc(c23)N1CCCCCCNC1=Nc2ccccc2CN1` [PP 24, 3-{6-[(3,4-Dihydroquinazolin-2-yl)amino]hexyl}-2λ^6-thia-3-azatricyclo[6.3.1.0^4,^12]dodeca-1(11),4(12),5,7,9-pentaene-2,2-dione], the fraction unbound in the series on HSA and AGP (24:1) is 0.004. Moreover, the IC50 in the series on 1321N1 astrocytoma cells was determined as 8.4 ± 1.9 µM. In addition, in [1], the “CHI C18 pH 2.6” value was 84.7, the “CHI C18 pH 7.4” value came to 103.2 and the “CHI C18 pH 10.5” value amounted to 127. In series [3], the “%HSA” value stood at 98.8%; the logKHSA is 1.65 and 1.6. The molecule further displayed an IC50 with MCF7 breast cancer cells of 15.7 ± 1.6 µM. Besides, the midpoint of inhibition in [5], the IC50, lay at 18.4 ± 1.1 µM.
`O=S(=O)(c1cccc2ccccc12)N1CCN(CCNC2=Nc3ccccc3CN2)CC1` [PP 6, N-{2-[4-(Naphthalene-1-sulfonyl)piperazin-1-yl]ethyl}-3,4-dihydroquinazolin-2-amine]: the IC50 is 20.9 ± 1.4 µM with 1321N1 astrocytoma cells, 51 µM in the series on HEK293, more than 25 µM in the series with MCF7 breast cancer cells and more than 25 µM in [5]. The Ki on D2 turned out to be 7.43 µM; at 5-HT1A [4], 0.042 µM. For the same molecule, the “CHI C18 pH 2.6” value in [1] is listed as 92.9. For the same molecule, the “CHI C18 pH 7.4” value in [1] was 101.5. Moreover, in series [1], the “CHI C18 pH 10.5” value stood at 138.2. Further, the EC50 on 5-HT1A [2] (Table 3, unit inferred, cAMP) was 0.375 µM. The “function at 5-HT1A” value at 5-HT1A [2] was “agonist”. For the same molecule, the “%HSA” value in series [3] stood at 97.2%. Also, the logKHSA in series [3] was 1.41 and 1.4.
On to `O=S(=O)(NCCCCCCNc1ncc2ccccc2n1)c1cccc2ccccc12` [PP 15, N-{6-[(Quinazolin-2-yl)amino]hexyl}naphthalene-1-sulfonamide], for which the IC50 with 1321N1 astrocytoma cells is more than 25 µM; with HEK293, more than 50 µM; with MCF7 breast cancer cells it was more than 25 µM; in series [5], more than 25 µM. Further, the figures for the Ki at D2 and on 5-HT1A [4] were 71.8 µM and 7.16 µM, respectively. For the same molecule, in [1], the “CHI C18 pH 2.6” value worked out at 99. For the same molecule, the “CHI C18 pH 7.4” value in [1] turned out to be 104.4. For the same molecule, in [1], the “CHI C18 pH 10.5” value came out at 107.2. Also, in series [3], the “%HSA” value is reported as 97.8%. Moreover, in series [3], the logKHSA was 1.48 and 1.5.

(Values after PMC11866022, “Long-Chain Cyclic Arylguanidines as Multifunctional Serotonin Receptor Ligands with Antiproliferative Activity” (ACS Omega, 2025).)
